{"source": "paper PMC8184911", "about": "“A small molecule HIF-1α stabilizer that accelerates diabetic wound healing” (Nature Communications, 2021)", "biological_target": "T1, Von Hippel-Lindau (VHL) (Homo sapiens, UniProt P40337)", "T1 construct": "human recombinant VHL:ElonginB:ElonginC (VBC) complex; with ElonginB, ElonginC", "T1 sequence (P40337 whole entry)": "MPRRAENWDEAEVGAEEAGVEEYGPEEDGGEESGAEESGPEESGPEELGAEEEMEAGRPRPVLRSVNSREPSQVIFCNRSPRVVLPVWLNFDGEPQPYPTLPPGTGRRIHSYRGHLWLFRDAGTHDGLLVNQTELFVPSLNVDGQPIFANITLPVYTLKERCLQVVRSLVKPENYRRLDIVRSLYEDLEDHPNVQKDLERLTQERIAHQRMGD", "T1 sequence (Q15370 whole entry partner)": "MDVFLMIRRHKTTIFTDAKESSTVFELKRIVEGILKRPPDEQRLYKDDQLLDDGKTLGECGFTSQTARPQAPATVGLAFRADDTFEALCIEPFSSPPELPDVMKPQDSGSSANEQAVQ", "T1 sequence (Q15369 whole entry partner)": "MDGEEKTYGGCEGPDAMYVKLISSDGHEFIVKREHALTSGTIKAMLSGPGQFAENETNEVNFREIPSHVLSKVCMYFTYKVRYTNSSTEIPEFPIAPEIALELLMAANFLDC", "assay": "fluorescence-based protein thermal shift assay of purified VBC ([…] VH298, positive control, shift ca. […] °C)", "assay_type": "binding", "conditions": "read-out: fluorescence-based protein thermal shift assay of purified VBC (100 μM VH298, po)"}
{"smiles": "Cc1ncsc1-c1ccc(CNC(=O)[C@@H]2C[C@@H](O)CN2C(=O)[C@@H](NC(=O)C2(C#N)CC2)C(C)(C)C)cc1", "note": "[VH298, (2 S, 4 R)-1-((S)-2-(1-cyanocyclopropanecarboxamido)-3,3-dimethylbutanoyl)-4-hydroxy-N-(4-(4-methylthiazol-5-yl)benzyl) pyrrolidine-2-carboxamide]", "values": [{"measurement": "ΔTm at 100 µM", "value": "~5", "unit": "°C"}]}
